This is an account of results in publication PMC5056396, “Hexokinase I N-terminal based peptide prevents the VDAC1-SOD1 G93A interaction and re-establishes ALS cell viability” (Scientific Reports, 2016).

The test system of test [1] is recombinant human VDAC1. The test can be described thus: Microscale Thermophoresis (MST) analysis of VDAC1-SOD1 interaction. It counts as binding. To be noted: 100 nM labeled VDAC1, SOD1 1.22 nM to 20 μM. The procedure: (§1) Intact isolated mitochondria from the motor neuron-like NSC34 cells were incubated with SOD1 WT or G93A, and mitochondrial membranes were precipitated by centrifugation. […] The affinity of SOD1 proteins for VDAC1 was then studied by using an in vitro binding assay. Purified and refolded VDAC1 was immobilized on Ni-NTA magnetic beads and incubated with SOD1 proteins. Then, VDAC1-binding complexes were isolated by the application of a magnetic field. […] The VDAC1-SOD1 interaction was quantitatively assayed by Microscale Thermophoresis (MST) analysis. MST measures any variation in the thermal migration of a fluorescently labeled binding partner; changes of fluorescence in a heated spot of the protein solution is a function of increasing interacting protein concentration, and can be exploited to calculate the binding affinity coefficient (Kd). The fluorescent-labeled VDAC1 was incubated with increasing concentrations of SOD1 proteins and the changes in fluorescence monitored. […] Depletion curve was used to calculate the Kd, which was estimated 4,81 μM.
Microscale Thermophoresis (MST) analysis was performed using the NanoTemper Monolith NT.115 apparatus (NanoTemper Technologies, Munich, Germany) as described. VDAC1 was fluorescently-labeled using the NanoTemper protein-labeling kit Green/Blue. […]

The test system of test [2] is recombinant human VDAC1. Briefly: In vitro binding assay of SOD1 proteins to VDAC1 immobilized on Ni-NTA magnetic beads (western blot). To be noted: 6.25 μM SOD1, 1 h RT, n = 3. Here is the method:
as §1
Recombinant VDAC1 was immobilized onto Ni-NTA Magnetic Agarose Beads (Qiagen) by exploiting its 6xHis-tag, according with manufacture’s protocol. […] Any protein in VDAC1-bound and -unbound fractions was evaluated by western blot. […]
(In general: Immunoblotting shows a protein as a band on a membrane.)

For test [3], the system named is intact mitochondria purified from NSC34 cells. The test can be described thus: Mitochondrial binding assay of SOD1 proteins (western blot). Details: species or system mouse. The following applies: 2 μg SOD1, 1 h RT, n = 3. Here is the method: Intact isolated mitochondria from the motor neuron-like NSC34 cells were incubated with SOD1 WT or G93A, and mitochondrial membranes were precipitated by centrifugation. […] The affinity of SOD1 proteins for VDAC1 was then studied by using an in vitro binding assay. Purified and refolded VDAC1 was immobilized on Ni-NTA magnetic beads and incubated with SOD1 proteins. Then, VDAC1-binding complexes were isolated by the application of a magnetic field. […] The VDAC1-SOD1 interaction was quantitatively assayed by Microscale Thermophoresis (MST) analysis. MST measures any variation in the thermal migration of a fluorescently labeled binding partner; changes of fluorescence in a heated spot of the protein solution is a function of increasing interacting protein concentration, and can be exploited to calculate the binding affinity coefficient (Kd). The fluorescent-labeled VDAC1 was incubated with increasing concentrations of SOD1 proteins and the changes in fluorescence monitored. […]
Intact mitochondria were purified from NSC34 cells by Mitochondrial isolation kit (Miltenyi Biotech), according with manufacturer’s instructions. Isolated, intact mitochondria, in the storage buffer provided, were quantified by Lowry method. […] Proteins in mitochondrial or supernatant fraction were detected by western blot and quantified as explained in Supplementary Information. […]

The subject of test [4] is human VDAC1 reconstituted into PLB. Briefly: VDAC1 channel conductance in planar lipid bilayer (PLB). It counts as biochemical. To be noted: for effect on single channel VDAC1 conductance: 1 M KCl, +25 mV, 0.2 μM SOD1 proteins or 15 μM peptide; for effect on voltage-dependence of VDAC1, triangular voltage ramps: symmetric 1 M KCl, ramps 0 to ±50 mV. The text has this:
Purified VDAC1 was reconstituted into a planar phospholipid bilayer (PLB) and its channel conductance was monitored before and after addition of SOD1 proteins, on cis or trans side of the membrane. […] Moreover, the effect of SOD1 proteins on the voltage-dependence of VDAC1 was monitored by triangular voltage ramps from 0 to ±50 mV. […] The current linearly follows the voltage applied up to about ±25 mV, where VDAC1 decreases its channel conductance through step-like transitions, remaining in low-conducting states.
Under standard experimental condition (1 M KCl and an applied potential of +25 mV) the VDAC1 channel was mainly in low-conducting closed states. […] The effect of NHK1 on the channel conductance is even more evident by plotting the amplitude values obtained in the current traces as a function of the number of events. While for VDAC1 alone the amplitude values appear as a main peak corresponding to the closed states (Fig. 4B), the presence of NHK1 caused a different distribution of events: an additional, different peak corresponding to the open state was visible, together with the closed states peak (Fig. 4C). […] The effect of NHK1 on the voltage-dependence of VDAC1 was monitored by triangular voltage ramps. […] In this experiment, indeed, VDAC1 completely loose, very precociously (already at ±15 mV applied), its ability to linearly respond to the applied voltage: a continuous switch from open to closed states was observed, especially at positive potentials. […] Upon NHK1 incubation, VDAC1 current transitions at positive voltages are very noisy and pass through different sub-conductance states (Fig. 4F).
Purified VDAC1 was reconstituted into a Planar Lipid Bilayer (PLB) apparatus (Warner Instruments, Hamden, CT, USA), previously described. Bilayers were prepared using asolectin (Sigma) dissolved in decane (Sigma) containing 1% chloroform (Sigma) across a 200 μm hole in a derlin cuvette (Warner Instruments). Experiments were performed in 1 M KCl, 10 mM Hepes, pH 7.0[40][46]. Control experiments using empty membrane and/or detergents were performed to avoid activity in any of the above solutions. Data were acquired using a Bilayer Clamp amplifier (Warner Instruments) at 100 μs/point, filtered at 200 Hz and analyzed offline using Clampfit 10.4 program set (Axon Instruments, Union City, CA, USA). Single channel analysis of VDAC1 was performed in presence or not of 0.2 μM of SOD1 WT or G93A, 15 μM NHK1 or ScNHK1 peptide.

For test [5], the system named is VDAC1-SOD1 G93A interaction. The test can be described thus: In vitro VDAC1-SOD1 G93A binding assay after pre-incubation with HK1 or peptide (western blot, densitometry). Further details: species or system human. To be noted: 200 μM HK1 pre-incubated 1 h, 6.25 μM SOD1 G93A; with respect to control; n = 3. The text has this:
It is well known that HKs bind to VDAC1 in physiological conditions. We hypothesized that the available area for interaction with soluble proteins is a limited, exposed portion of the transmembrane pore VDAC1. […] For this reason, we repeated the VDAC1-SOD1 G93A binding assay, adding increasing concentrations of HK1. […] The reduction corresponds to the increase of HK1 in VDAC1-bound fraction, and it is proportional to the HK1 concentrations added in the assay (Fig. 3A).
In order to evaluate the NHK1 ability to interfere with VDAC1-SOD1 G93A interaction, a binding assay was performed. Increasing concentrations of NHK1 were added to immobilized-VDAC1, before SOD1 G93A addition. […] In fact, a 20-fold smaller concentration of peptide was used to obtain a result similar to that obtained by using the whole HK1 in the previous experiment (see Fig. 3A).
Recombinant VDAC1 was immobilized onto Ni-NTA Magnetic Agarose Beads (Qiagen) by exploiting its 6xHis-tag, according with manufacture’s protocol. For each experiment, a large excess of VDAC1 (30 μM) were incubated with 50 μL of beads suspension in Interaction Buffer (IB) (300 mM NaCl, 50 mM NaH2PO4, 20 mM imidazole, pH 8.0) to saturate all sites. Beads were collected using the magnet-based system DynaMag-2 (Life Technologies) and washed twice in Wash Buffer (300 mM NaCl, 50 mM NaH2PO4, 20 mM imidazole, 0.05% Tween-20, pH 6.3) to remove any excess of VDAC1. Beads-immobilized VDAC1 were incubated with 6.25 μM SOD1 WT or G93A, for 1 h at RT, under constant shaking, in 100 μL of IB. The assay was also performed by pre-incubating immobilized-VDAC1 for an extra 1 h with increasing concentration of purified human HK1 (0, 100, 200 μM) or NHK1 peptide (0, 5, 10, 25 μM), before SOD1 G93A addition. Beads were recovered using Dyna-Mag2 system and VDAC1-complexes were eluted from beads using 50 μL of Elution Buffer (300 mM NaCl, 50 mM NaH2PO4, 300 mM imidazole, pH 3.5). Any protein in VDAC1-bound and -unbound fractions was evaluated by western blot. Three independent experiments were performed for each condition tested.

Another test concerns NSC34-SOD1G93A cells. Briefly: Mitochondrial membrane potential (ΔΨm) by flow cytometry. It counts as cell-based, mouse. To be noted: NSC34-SOD1G93A expressing HK1; RH123; n = 3. Here is the method:
To evaluate the NHK1 influence on mitochondrial functionality, mitochondrial membrane potential variation (ΔΨm) was assayed in the presence of NHK1 peptide or HK1. ΔΨm is related to the ATP production by oxidative phosphorylation; therefore, it is considered an indication of good mitochondrial and cellular health. Using mitochondria-targeted fluorescent probes, we estimated in flow cytometry the rate of mitochondrial depolarization. NSC34-SOD1G93A cells shown a high level of depolarized mitochondria compared to NSC34-SOD1WT. […] Similarly to NHK1 peptide, the expression of the whole HK1 reduced the depolarized mitochondria of about 15% (Fig. 7C).
ΔΨm was measured using tetramethyl-rhodamine methyl ester (TMRM) or Rhodamine 123 (RH123) (Molecular Probes) according to the excitation/emission wavelength of the transfection reporter or of the transfected fluorescent protein used. Both probes accumulates in active mitochondria due to their positive charge, whereby the reduction of ΔΨm leads to the release of fluorescent probes. Transfected NSC34-SOD1WT and NSC34-SOD1G93A cells were washed with PBS and incubated for 30 min at 37 °C with Krebs Ringer Buffered Saline supplemented with either 200 nM TMRM or 0.1 μg/mL RH123 and 20 μM Verapamil (as a multi drug-resistant pump inhibitor) (Sigma). Cells were then harvested and immediately analyzed by flow cytometry. Cells were excited by an air-cooled argon 488 nm laser, reading the GFP fluorescence of HK1-GFP or RH123 fluorescence in FL1 log mode; TMRM and mtDsRED used as transfection reporter of NHK1 peptide were read on FL3 log mode. Only viable cells detected by reading the scattering indicated as FSC and SSC, were considered for our analysis. The threshold physiological value of ΔΨm was estimated by using cells exposed to 1 μM of the uncoupling agent FCCP as a negative control. Data reported are representative for three sets of independent experiments, each performed at least in triplicate and based on 20.000 events for each group. Data were statistical analyzed by chi-square test. A p < 0,001 was taken as significant.
Background: Flow cytometry measures light scatter and fluorescence of single cells or particles in a stream.

As to “SOD1 G93A: Strep-tagged recombinant human ALS-linked SOD1 G93A mutant expressed in E. coli”, the “change of fluorescence of labeled VDAC1 with increasing SOD1 concentration” value in the test on recombinant human VDAC1 [1] was “produced fluorescence decrease”. Also, the “distribution between VDAC1-bound and -unbound fraction” value in the test on recombinant human VDAC1 [2] was “distributed between VDAC1-bound and -unbound fraction”. For the same molecule, in test [3], the “distribution between mitochondrial pellet and supernatant” value is on record as “co-precipitated in the mitochondrial pellet”. In test [4], the “effect on single channel VDAC1 conductance” value is listed as “promoted VDAC1 channel instability” and the “effect on voltage-dependence of VDAC1, triangular voltage ramps” value is reported as “perturbation of voltage-dependence”.
On to “SOD1 WT: Strep-tagged recombinant human SOD1 wild type expressed in E. coli”, for which the “change of fluorescence of labeled VDAC1 with increasing SOD1 concentration” value in the test on recombinant human VDAC1 [1] was “no fluorescence change”. Further, the “distribution between VDAC1-bound and -unbound fraction” value in the test with recombinant human VDAC1 [2] is listed as “almost exclusively in the unbound fraction”. The “distribution between mitochondrial pellet and supernatant” value in test [3] is “found exclusively in the supernatant”. In test [4], the “effect on single channel VDAC1 conductance” value was “did not modify the VDAC1 closed state” and the “effect on voltage-dependence of VDAC1, triangular voltage ramps” value is “no modification in the usual VDAC1 pattern”.

B1: HK1: recombinant human HK1 purchased by Sigma; in cells expressed from plasmid (protein)
chain: MIAAQLLAYYFTELKDDQVKKIDKYLYAMRLSDETLIDIMTRFRKEMKNGLSRDFNPTATVKMLPTFVRSIPDGSEKGDFIALDLGGSSFRILRVQVNHEKNQNVHMESEVYDTPENIVHGSGSQLFDHVAECLGDFMEKRKIKDKKLPVGFTFSFPCQQSKIDEAILITWTKRFKASGVEGADVVKLLNKAIKKRGDYDANIVAVVNDTVGTMMTCGYDDQHCEVGLIIGTGTNACYMEELRHIDLVEGDEGRMCINTEWGAFGDDGSLEDIRTEFDREIDRGSLNPGKQLFEKMVSGMYLGELVRLILVKMAKEGLLFEGRITPELLTRGKFNTSDVSAIEKNKEGLHNAKEILTRLGVEPSDDDCVSVQHVCTIVSFRSANLVAATLGAILNRLRDNKGTPRLRTTVGVDGSLYKTHPQYSRRFHKTLRRLVPDSDVRFLLSESGSGKGAAMVTAVAYRLAEQHRQIEETLAHFHLTKDMLLEVKKRMRAEMELGLRKQTHNNAVVKMLPSFVRRTPDGTENGDFLALDLGGTNFRVLLVKIRSGKKRTVEMHNKIYAIPIEIMQGTGEELFDHIVSCISDFLDYMGIKGPRMPLGFTFSFPCQQTSLDAGILITWTKGFKATDCVGHDVVTLLRDAIKRREEFDLDVVAVVNDTVGTMMTCAYEEPTCEVGLIVGTGSNACYMEEMKNVEMVEGDQGQMCINMEWGAFGDNGCLDDIRTHYDRLVDEYSLNAGKQRYEKMISGMYLGEIVRNILIDFTKKGFLFRGQISETLKTRGIFETKFLSQIESDRLALLQVRAILQQLGLNSTCDDSILVKTVCGVVSRRAAQLCGAGMAAVVDKIRENRGLDRLNVTVGVDGTLYKLHPHFSRIMHQTVKELSPKCNVSFLLSEDGSGKGAALITAVGVRLRTEASS
With B1, the “decrease of SOD1 G93A bound to immobilized VDAC1” value in test [5] was “about 40%”. Further, in the test with NSC34-SOD1G93A cells, the “reduction of depolarized mitochondria” value is “about 15%”.
